# Where two headings read alike, the source gives them in different places.
# Experiments:
# [1] = target: T1, human NMB receptor (BB1) (Homo sapiens, UniProt P28336); experiment: BB1 binding assay ([125I][Tyr4]bombesin, CHO-K1 cell membranes)
# T1 construct: expressed in transfected cells; host or cells: CHO-K1
# Description: In the following experiments, measurement of BB1 and BB2 binding was as follows. CHO-K1 cells stably expressing cloned human NMB (for (BB1 assay) and GRP receptors (for BB2 assay) were routinely grown in Ham's F12 culture medium supplemented with 10% foetal calf serum and 2 mM glutamine. For binding experiments, cells were harvested by trypsinization, and stored frozen at −70° C. in Ham's F12 culture medium containing 5% DMSO until required. On the day of use, cells were thawed rapidly, diluted with an excess of culture medium, and centrifuged for 5 minutes at 2000 g. Cells were resuspended in 50 mM Tris-HCl assay buffer (pH 7.4 at 21° C., containing 0.02% BSA, 40 μg/mL bacitracin, 2 μg/mL chymostatin, 4 μg/mL leupeptin, and 2 μM phosphoramidon), counted, and polytronned (setting 5, 10 sec) before centrifuging for 10 minutes at 28,000 g. The final pellet was resuspended in assay buffer to a final cell concentration of 1.5×10^5/mL. For binding assays, 200 μL aliquots of membranes were incubated with [^125I][Tyr^4]bombesin (<0.1 nM) in the presence and absence of test compounds (final assay volume 250 μL) for 60 minutes and 90 minutes for NMB and GRP receptors, respectively. Nonspecific binding was defined by 1 μM bombesin. Assays were terminated by rapid filtration under vacuum onto Whatman GF/C filters presoaked in 0.2% PEI for >2 hours, and washed 50 mM Tris-HC (pH 6.9 at 21° C.; 6×1 mL). Radioactivity bound was determined using a gamma counter.
# All competition data was analysed using nonlinear regression utilizing iterative curve-plotting procedures in Prism® (GraphPad Software Inc., San Diego, USA). IC50 values were corrected to Ki values using the Cheng-Prusoff equation (Cheng Y., PrusoffW. H., Biochem. Pharmacol. 22: 3099-3108, 1973).
# [2] = tested on: ovariectomised female Sprague Dawley rats; experiment: Female rat sexual receptivity (lordosis quotient); assay type: in vivo; conditions: for lordosis quotient (LQ) compared to LQ before administration: quinelorane 6.25 μg/kg s.c., 90 min
# Description: (§1) Ovariectomised adult female Sprague Dawley rats (180-200 g, from Charles River) were housed in groups of 6 in a reversed lighting system of 12 h light:dark (lights off 7.00-19.00 h). Two weeks after ovariectomy they were used for sexual activity tests. The experiments started at least 5 h into the dark period.
# Compound (1) was dissolved in 100% β-cyclodextrin and then diluted with saline to a final solution of 50% 2-hydroxypropyl-β-cyclodextrin. It was administered intraperitoneally (i.p.) at a dose of 10 mg/kg, in a dosing volume of 1 ml/kg. Quinelorane (6.25 μg/kg) was dissolved in water and administered s.c. as positive control. Forty eight hours before testing, ovariectomised female rats (as described above), were primed with 5 μg oestradiol benzoate dissolved in corn oil and injected subcutaneously. […] The females were placed with a series of vigorous male rats and subjected to 10 mounts.
# The lordotic response of the animal was recorded and expressed as a percentage of the mounts (i.e. lordosis quotient, LQ), as previously described. Animals showing LQ<20 were considered non-receptive and were included in the study. Each rat was tested prior to administration of the compound and then tested similarly post-injection. The pre-treatment times were 1 h for Compound (1) and vehicle (50% β-cyclodextrin, i.p.) or 90 min for quinelorane.
# The above compound was dissolved in PEG200 vehicle and administered orally. Quinelorane dihydrochloride (LY 163,502, 6.25 μg/kg) was dissolved in water and administered subcutaneously (s.c.), as a positive control. Both compounds were administered in a 1 ml/kg volume.
# Forty eight hours before tests, the animals were primed with 5 μg oestradiol benzoate (Sigma Chemical. Co. Ltd., UK) dissolved in corn oil and injected subcutaneously. The females were placed with a series of vigorous male rats and subjected to 10 mounts. The lordotic response of the animal was recorded and expressed as a percentage of the mounts (i.e. lordosis quotient, LQ). […] Animals showing higher LQ were not included in the study. Each rat was tested prior to administration of the compound and then tested similarly at 1 h and 90 min post-injection of the above compound or quinelorane respectively.
# [3] = tested on: ovariectomised female Sprague Dawley rats; experiment: Female rat sexual proceptivity (time investigating male vs female stimulus); assay type: in vivo; conditions: for MED, percentage of time spent investigating the male stimulus (proceptivity) / percentage of time spent investigating the male stimulus (proceptivity): 1 h before test
# Description: as §1
# Tests were carried out in a circular arena of 90 cm diameter, surrounded by a 30 cm high wall. Two small cages with wire-mesh front (15×15 cm) are fixed into the wall such that the front of the cage is <> with the wall and the 2 cages are opposite each other. They contained two stimuli animals: an intact sexually experienced male and a receptive female (ovariectomised, primed with 5 μg oestradiol benzoate dissolved in corn oil and injected subcutaneously 48 hours before the test and with 0.5 mg of progesterone four hours before the test). Sexually naive test and control animals were used. Forty eight hours before the tests, both the test and control animals were primed with 5 μg oestradiol benzoate. For animals used as positive controls, progesterone (0.5 mg/0.1 ml) was dissolved in corn oil and administered subcutaneously (s.c.), 4 h before the test. Test and control animals were introduced one at a time for 10 minute periods into the arena. During the 10 min test, the time that the test or positive control animal spent investigating each stimulus animal was noted. The arena was thoroughly cleaned between animals. The position of the male/female stimuli boxes was randomised between animals, in order to avoid place preference. The difference in the percentage of time spent investigating the male minus the female stimuli was calculated, out of the total time spent investigating stimuli animals.
# Compound (1) was dissolved in 100% β-cyclodextrin and then diluted with saline to a final solution of 50% 2-hydroxypropyl-β-cyclodextrin. It was administered intraperitoneally (i.p.) at doses of 3 and 10 mg/kg, in a dosing volume of 1 ml/kg, 1 h before tests. Progesterone (0.5 mg/0.1 ml) was dissolved in corn oil and administered subcutaneously (s.c.), 4 h before test, as a positive control.
# Ovariectomised adult female Sprague Dawley rats (180-200 g) were housed in groups of 5 in a reversed lighting system of 12 h light:dark (lights off 5.00-17.00 h). They were used for the experiments at least two weeks after ovariectomy. Forty eight hours before tests, the animals were primed with oestradiol benzoate (5 μg/0.1 ml in corn oil, s.c.). On day 1, progesterone (0.5 mg/0.1 ml, in corn oil, s.c.) was administered to one of the groups 4 h before tests, as a positive control. Compound (1) (15 mg/kg, i.p.) was administered in 50% 2-hydroxypropyl-β-cyclodextrin, 1 h before tests. The test lasted 10 minutes and was carried out as described before. The difference in the percentage of time spent investigating the male minus the female stimuli was calculated, out of the total time spent investigating stimuli animals. Animals were submitted to a test on day 1 and on day 15. From day 2 to 14 the Compound (1) group received a daily injection of the compound (15 mg/kg, i.p.), while both the vehicle and the progesterone groups received an injection of vehicle. On day 15 the test took place again, as described for day 1.
# Ovariectomised female rats (Sprague Dawley, obtained from Charles River, UK) were stereotaxically implanted (coordinates 0.89 mm behind Bregma, 1.3 mm lateral and 2.5 mm vertical) with stainless steel cannulae (6 mm long, O.D. 0.75 mm), held in place with dental cement. Animals were housed in groups of three and returned to a reversed lighting system of 12 h light:dark (lights off 5.00-17.00 h). Correct placement of the cannulae was assessed post-mortem. Rats were used for tests two weeks after ovariectomy (one week after cannulation). The experiments started at least 5 h into the dark period. […]
# [4] = tested on: Sprague Dawley male rats; experiment: Sexual behaviour of sexually dysfunctional (fluoxetine-treated) male rats; assay type: in vivo, rat; conditions: fluoxetine 20 mg/kg i.p. 3 days (vs vehicle+vehicle); day 4 Compound (1) 15 mg/kg or yohimbine 2 mg/kg i.p. 1 h before test (vs fluoxetine+vehicle)
# Description: Sprague Dawley male rats (Charles River, UK) were kept, 4 rats per cage, in a reversed lighting regime (12:12 hours, lights off at 5.00 h), with free access to food and water. The rats were pre-selected by being presented with a receptive female at […], i.e. every third day (haying 2 clear days between presentations) until completing 6-7 trials of baseline determination. The animals showing consistently vigorous behaviour (ejaculatory latencies <300 s) were chosen for further experiments. Animals were treated for 3 consecutive days with either vehicle (water) or fluoxetine (20 mg/kg, i.p., in a 2 ml/kg dosing volume). On the fourth day, the animals treated with water received vehicle (veh+veh) and the animals treated with fluoxetine received one of the three following treatments: Compound (1) (15 mg/kg, dissolved in 50% 2-hydroxypropyl-β-cyclodextrin in saline), vehicle (cyclodextrine), or yohimbine (2 mg/kg dissolved in water). All treatments were administered i.p. in a 1 ml/kg volume, 1 h before tests.
# For all the sexual behaviour tests, the males were placed in an observation arena (50-60 cm diameter), starting 5 hours into the dark cycle and observed under red illumination. Three to 4 minutes after placing the male in the arena, a receptive female (ovariectomised, bearing a 7 mm Silastic implant of oestradiol benzoate) was introduced to the arena and the following parameters noted: Mount Latency: time (in seconds) taken between introduction of female and first mount. A maximum time of 15 minutes (900 seconds) was allowed, and the test terminated if no mounts were recorded within that time (FIG. 16), Ejaculation Latency: time (in seconds) taken from first intromission to ejaculation. A maximum time of 30 minutes (1800 seconds) was given, and the test terminated if ejaculation was not achieved in that time (FIG. 17), Percentage of males achieving ejaculation within 30 minutes was calculated (FIG. 18).
# A one-way ANOVA followed by Dunnett's t test was used to compare the fluoxetine+vehicle group and other groups for mount and ejaculatory latencies. Percentage of animals ejaculating was analysed using a Chi-square test followed by Fisher's test. (*: P<0.05, **: P<0.01, ***: P<0.001; n=15-19).
# [5] = Example 31, Compound (2) 10-100 mg/kg oral in PEG200, 1 h
# [6] = oral, 30-100 mg/kg in PEG 200 vehicle
# [7] = p.o., 3-30 mg/kg in 0.5% methyl cellulose
# T1 sequence (P28336 whole entry): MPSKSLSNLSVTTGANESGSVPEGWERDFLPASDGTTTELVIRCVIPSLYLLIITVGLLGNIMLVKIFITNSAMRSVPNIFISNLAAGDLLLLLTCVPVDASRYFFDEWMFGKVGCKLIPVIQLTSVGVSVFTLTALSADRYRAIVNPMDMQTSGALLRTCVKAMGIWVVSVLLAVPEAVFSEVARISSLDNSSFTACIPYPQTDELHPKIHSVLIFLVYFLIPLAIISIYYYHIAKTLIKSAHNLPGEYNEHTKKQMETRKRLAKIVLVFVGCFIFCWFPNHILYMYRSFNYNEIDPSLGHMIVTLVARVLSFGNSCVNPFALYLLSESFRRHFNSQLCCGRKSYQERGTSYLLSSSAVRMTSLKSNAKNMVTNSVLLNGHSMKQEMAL
compound,measurement,setting,value
C-Dimethylamino-N—{(S)-2-(1H-indol-3-yl)-1-methyl-1-[(1-pyridin-2-yl-cyclohexyl-methyl)-carbamoyl]-ethyl}-benzamide [Example 48],IC50,[1]; Table 3,0.716 µM
"Cc1ccccc1CC(=O)N[C@@](C)(Cc1c[nH]c2ccccc12)C(=O)NCC1(c2ccccn2)CCCCC1 [Example 51, (S)-3-(1H-Indol-3-yl)-2-methyl-N-(1-pyridin-2-yl-cyclohexylmethyl)-2-(2-o-tolyl-ethanoylamino)-propionamide]",IC50,[1]; Table 3,0.944 µM
C[C@@](Cc1c[nH]c2ccccc12)(NS(=O)(=O)c1cc(Cl)sc1Cl)C(=O)NCC1(c2ccccn2)CCCCC1 [Example 157],IC50,[1],0.214 µM
"CCCN1CCC[C@@H]2Cc3nc(N)ncc3C[C@H]21 [quinelorane, reference compound]",lordosis quotient (LQ) compared to LQ before administration,"[2]; Example 2, Compound (1) 10 mg/kg i.p., 1 h",significantly (P<0.01) increased the LQ
same,lordosis quotient (LQ) compared to LQ before administration,[2]; [5],significantly (P<0.01) increased the LQ
"COc1ccc(C2(CNC(=O)[C@](C)(Cc3c[nH]c4ccccc34)Nc3nc(-c4ccc([N+](=O)[O-])cc4)co3)CCCCC2)nc1 [Example 9, (S)-3-(1H-Indol-3-yl)-N-[1-(5-methoxy-pridin-2-yl)-cyclohexylmethyl]-2-methyl-2-[4-(4-nitro-phenyl)-oxazol-2-ylamino]-propionamide]",lordosis quotient (LQ) compared to LQ before administration,[2]; [5],dose-dependently (10-100 mg/kg) increased the LQ
same,"MED, increase of lordosis quotient (LQ)","[2]; Example 31, single oral administration 10-100 mg/kg in PEG200, 1 h after administration",100 mg/kg
same,increase in potency compared to the oral results in the PEG200 vehicle,"[3]; MED in 0.5% methyl cellulose vs MED in PEG200, p.o.",10 fold
same,"MED, percentage of time spent investigating the male stimulus (proceptivity)",[3]; [6],100 mg/kg
same,percentage of time spent investigating the male stimulus (proceptivity),[3]; [6],increased the percentage of time spent investigating the male stimulus
same,"MED, percentage of time spent investigating the male stimulus (proceptivity)",[3]; [7],10 mg/kg
same,percentage of time spent investigating the male stimulus (proceptivity),[3]; [7],increased the percentage of time spent investigating the male stimulus
"COC(=O)[C@@H]1[C@H]2C[C@H]3c4[nH]c5ccccc5c4CCN3C[C@@H]2CC[C@@H]1O [Yohimbine, yohimbine]",Ejaculation latency,[4],did not reach significance
same,Mount latency,[4],did not reach significance
same,percentage of animals ejaculating (within 30 minutes),[4],did not reach significance

# — patent publication US20040087561A1, “Treatment of sexual dysfunction” (priority 2000, published 2004)
